Test results reported in article PMC10600239, “Selective MCL-1 inhibitor ABBV-467 is efficacious in tumor models but is associated with cardiac troponin increases in patients” (Communications Medicine, 2023).
Several values for one entry are separate records, joined by “and”; a condition that tells them apart may be missing. Identical values can stand only once.

Tests used:
MV4-11-Red.Fluc = experiment: Systemic MV4-11-Red.Fluc model (bioluminescence, total flux); assay type: in vivo, mouse; design: bioluminescence signal, individual mouse (ear tag), 10 min post: unit: p/s; conditions: for bioluminescence signal, group Average, 10 min post / bioluminescence signal, individual mouse (ear tag), 10 min post: MV 4-11 red.fluc, A-1726694 q7dx3 IV, ABT-199 50mkd qdx21 PO
Method: All animal studies were conducted in accordance with the guidelines approved by the Institutional Animal Care and Use Committees of AbbVie. The research protocol was approved by In Vivo Pharmacology at AbbVie prior to study initiation but was not publicly registered or disclosed. Female C.B-17 SCID-beige mice (AMO-1, OPM-2, NCI-H929, and OCI-AML2 xenografts) and female NSG mice (MV4-11-Red.Fluc systemic) were purchased from Charles River Laboratories (Wilmington, MA). Animals were housed in a light cycle-controlled room with HEPA filtration at 22 °C. Animals had nesting and climbing cage topper as the primary environmental enrichment. Animals were inoculated subcutaneously in the right flank with 5 × 10^6 (AMO-1, OPM-2, NCI-H929, and OCI-AML2) or intravenous (IV) with 5 × 10^6 (MV4-11-Red.Fluc). The inoculation volume (0.2 mL) comprised a 50:50 mixture of cells in growth media and Matrigel (BD Biosciences) for subcutaneous injections and 100% phosphate-buffered saline for IV administration. All cell lines used in this publication were authenticated using IDEXX for STR profiling as well as their IMPACT and human IMPACT panels for pathogen screening. Electronic calipers were used to measure the length and width of each tumor 2 to 3 times per week. Tumor volume was estimated by applying the following equation: volume = length × width^2/2. All groups remained blinded during measurements and dosing; only veterinary staff were aware of group identity. When tumors reached approximately 200 mm^3, mice were randomized by match and distributed into treatment and control groups. All xenograft trials were conducted using 5 to 10 mice per group, and all mice were ear tagged and monitored individually throughout the studies. Any animal with a tumor above 2000 mm^3 or 15% loss in body weight was euthanized and removed from the study. Tumor burden in the systemic MV4-11-Red.Fluc experiment was measured using an IVIS® spectrum from PerkinElmer by taking the total photon flux of the entire dorsal side of an individual mouse. Ten minutes prior to imaging, animals received intraperitoneally 0.2 mL of a 15-mg/mL solution of D-Luciferin (PerkinElmer, Catalog #122799) formulated in 100% phosphate-buffered saline. Animals were anesthetized using 3.5% isoflurane and maintained using 2%. Six days after inoculation, animals were imaged and randomized into vehicle and treatment groups at a total flux of ~1 × 10^8. A background control mouse that was tumor naive but received D-Luciferin was placed in the upper left corner of each image. The total flux from this animal was subtracted from the total flux of each animal present in the image. […]

OCI-AML2 xenografts = experiment: OCI-AML2 xenograft efficacy (tumor volume, body weight); conditions: venetoclax 25 mg/kg QD × 14, azacitidine 8 mg/kg Q7D × 3, or the combination of both
Method: All animal studies were conducted in accordance with the guidelines approved by the Institutional Animal Care and Use Committees of AbbVie. The research protocol was approved by In Vivo Pharmacology at AbbVie prior to study initiation but was not publicly registered or disclosed. Female C.B-17 SCID-beige mice (AMO-1, OPM-2, NCI-H929, and OCI-AML2 xenografts) and female NSG mice (MV4-11-Red.Fluc systemic) were purchased from Charles River Laboratories (Wilmington, MA). Animals were housed in a light cycle-controlled room with HEPA filtration at 22 °C. Animals had nesting and climbing cage topper as the primary environmental enrichment. Animals were inoculated subcutaneously in the right flank with 5 × 10^6 (AMO-1, OPM-2, NCI-H929, and OCI-AML2) or intravenous (IV) with 5 × 10^6 (MV4-11-Red.Fluc). The inoculation volume (0.2 mL) comprised a 50:50 mixture of cells in growth media and Matrigel (BD Biosciences) for subcutaneous injections and 100% phosphate-buffered saline for IV administration. […] Electronic calipers were used to measure the length and width of each tumor 2 to 3 times per week. Tumor volume was estimated by applying the following equation: volume = length × width^2/2. All groups remained blinded during measurements and dosing; only veterinary staff were aware of group identity. When tumors reached approximately 200 mm^3, mice were randomized by match and distributed into treatment and control groups. All xenograft trials were conducted using 5 to 10 mice per group, and all mice were ear tagged and monitored individually throughout the studies.
For combination studies, all compounds were administered within 30 min of each other.
The tumor growth delay (TGD) percentage was determined as the percentage increase of the median time period for the treatment group to reach an arbitrary tumor volume of 1000 mm^3 relative to the vehicle control group. […] A power analysis was conducted using historical data to determine the number of animals required to yield significance of 0.05 at a 30% difference. There were no animals excluded. Data from experiments in vivo were analyzed using the student’s t-test for TGI values and the Mann–Whitney U test for TGD using Excel and GraphPad Prism. Fisher’s exact test was used to probe significance of differences in response frequency.

[1] = Day 10, individual mice (ROI 2-10), listed as ABT-199
[2] = Day 13, individual mice (ROI 2-10), listed as ABT-199
[3] = Day 17, individual mice (ROI 2-10), listed as ABT-199
[4] = Day 20, individual mice (ROI 2-10), listed as ABT-199
[5] = Day 24, individual mice (ROI 2-10), listed as ABT-199
[6] = Day 31, individual mice (ROI 2-10), listed as ABT-199

## CC1(C)CCC(CN2CCN(c3ccc(C(=O)NS(=O)(=O)c4ccc(NCC5CCOCC5)c([N+](=O)[O-])c4)c(Oc4cnc5[nH]ccc5c4)c3)CC2)=C(c2ccc(Cl)cc2)C1 [venetoclax]
MV4-11-Red.Fluc; 50 mg/kg for 21 days, PO
  antitumor activity: no antitumor activity
MV4-11-Red.Fluc; 648 h
  Total Flux: 2.48E+10 p/s
  Total Flux minus ROI 1 (background): 2.48E+10 p/s
MV4-11-Red.Fluc; [1]
  Total Flux [p/s]: 3.06E+08 p/s and 5.81E+08 p/s and 2.31E+08 p/s and 9.72E+08 p/s and 7.29E+08 p/s and 4.72E+08 p/s and 3.55E+08 p/s and 4.65E+08 p/s and 4.49E+08 p/s
  Total flux minus background control mouse (ROI 1): 3.02E+08 p/s and 5.77E+08 p/s and 2.27E+08 p/s and 9.68E+08 p/s and 7.24E+08 p/s and 4.68E+08 p/s and 3.50E+08 p/s and 4.61E+08 p/s and 4.45E+08 p/s
MV4-11-Red.Fluc; [2]
  Total Flux [p/s]: 1.30E+09 p/s and 1.10E+09 p/s and 6.50E+08 p/s and 9.71E+08 p/s and 1.65E+09 p/s and 8.95E+08 p/s and 8.72E+08 p/s and 1.18E+09 p/s and 1.23E+09 p/s
  Total flux minus background control mouse (ROI 1): 1.29E+09 p/s and 1.09E+09 p/s and 6.41E+08 p/s and 9.63E+08 p/s and 1.64E+09 p/s and 8.87E+08 p/s and 8.64E+08 p/s and 1.18E+09 p/s and 1.22E+09 p/s
MV4-11-Red.Fluc; [3]
  Total Flux [p/s]: 3.56E+09 p/s and 4.83E+09 p/s and 3.68E+09 p/s and 6.21E+09 p/s and 6.82E+09 p/s and 2.69E+09 p/s and 4.42E+09 p/s and 4.69E+09 p/s and 4.88E+09 p/s
  Total flux minus background control mouse (ROI 1): 3.54E+09 p/s and 4.80E+09 p/s and 3.65E+09 p/s and 6.19E+09 p/s and 6.79E+09 p/s and 2.67E+09 p/s and 4.40E+09 p/s and 4.67E+09 p/s and 4.85E+09 p/s
MV4-11-Red.Fluc; [4]
  Total Flux [p/s]: 8.57E+09 p/s and 1.38E+10 p/s and 5.34E+09 p/s and 1.24E+10 p/s and 6.94E+09 p/s and 6.64E+09 p/s and 8.48E+09 p/s and 1.02E+10 p/s and 9.62E+09 p/s
  Total flux minus background control mouse (ROI 1): 8.51E+09 p/s and 1.38E+10 p/s and 5.28E+09 p/s and 1.23E+10 p/s and 6.88E+09 p/s and 6.58E+09 p/s and 8.42E+09 p/s and 1.02E+10 p/s and 9.56E+09 p/s
MV4-11-Red.Fluc; [5]
  Total Flux [p/s]: 9.23E+09 p/s and 1.74E+10 p/s and 6.63E+09 p/s and 2.32E+10 p/s and 2.87E+10 p/s and 1.25E+10 p/s and 1.47E+10 p/s and 1.56E+10 p/s and 1.06E+10 p/s
  Total flux minus background control mouse (ROI 1): 9.16E+09 p/s and 1.73E+10 p/s and 6.56E+09 p/s and 2.31E+10 p/s and 2.87E+10 p/s and 1.24E+10 p/s and 1.46E+10 p/s and 1.55E+10 p/s and 1.06E+10 p/s
MV4-11-Red.Fluc; Day 27, individual ROI (one per animal), background-subtracted, listed as ABT-199
  Total Flux minus ROI 1 (background): 2.02E+10 p/s and 1.49E+10 p/s and 4.29E+10 p/s and 4.73E+10 p/s and 2.09E+10 p/s and 3.23E+10 p/s and 1.93E+10 p/s and 2.82E+10 p/s
MV4-11-Red.Fluc; Day 27, individual ROI (one per animal, ROI 2-10), raw value, listed as ABT-199
  Total Flux: 2.04E+10 p/s and 1.50E+10 p/s and 4.31E+10 p/s and 4.74E+10 p/s and 2.11E+10 p/s and 3.24E+10 p/s and 1.94E+10 p/s and 2.84E+10 p/s
MV4-11-Red.Fluc; [6]
  Total Flux [p/s]: 3.95E+10 p/s and 4.22E+10 p/s and 3.73E+10 p/s and 1.10E+11 p/s and 6.34E+10 p/s and 6.46E+10 p/s and 6.17E+10 p/s and 4.73E+10 p/s and 4.87E+10 p/s
  Total flux minus background control mouse (ROI 1): 3.92E+10 p/s and 4.19E+10 p/s and 3.70E+10 p/s and 1.10E+11 p/s and 6.31E+10 p/s and 6.43E+10 p/s and 6.13E+10 p/s and 4.70E+10 p/s and 4.84E+10 p/s
MV4-11-Red.Fluc; Day 34, individual ROI (one per animal), background-subtracted, listed as ABT-199
  Total Flux minus ROI 1 (background): 6.39E+10 p/s and 5.69E+10 p/s and 4.58E+10 p/s and 3.00E+11 p/s and 1.05E+11 p/s and 1.25E+11 p/s and 8.20E+10 p/s and 1.20E+11 p/s and 6.30E+10 p/s
MV4-11-Red.Fluc; Day 34, individual ROI (one per animal, ROI 2-10), raw value, listed as ABT-199
  Total Flux: 6.47E+10 p/s and 5.77E+10 p/s and 4.66E+10 p/s and 3.01E+11 p/s and 1.06E+11 p/s and 1.26E+11 p/s and 8.28E+10 p/s and 1.21E+11 p/s and 6.39E+10 p/s
MV4-11-Red.Fluc; Day 38, individual ROI (one per animal), background-subtracted, listed as ABT-199
  Total Flux minus ROI 1 (background): 3.53E+10 p/s and 1.45E+11 p/s and 3.00E+11 p/s and 1.27E+11 p/s and 1.37E+11 p/s and 1.69E+11 p/s and 9.41E+10 p/s and 1.57E+11 p/s
MV4-11-Red.Fluc; Day 38, individual ROI (one per animal, ROI 2-10), raw value, listed as ABT-199
  Total Flux: 3.60E+10 p/s and 1.46E+11 p/s and 3.01E+11 p/s and 1.27E+11 p/s and 1.38E+11 p/s and 1.69E+11 p/s and 9.48E+10 p/s and 1.57E+11 p/s
MV4-11-Red.Fluc; Day 41, individual ROI (one per animal), background-subtracted, listed as ABT-199
  Total Flux minus ROI 1 (background): 2.65E+11 p/s and 1.77E+09 p/s and 1.55E+11 p/s and 4.70E+11 p/s and -1.25E+08 p/s and 2.06E+11 p/s and 5.84E+11 p/s and 2.05E+08 p/s and 1.78E+11 p/s
MV4-11-Red.Fluc; Day 41, individual ROI (one per animal, ROI 2-10), raw value, listed as ABT-199
  Total Flux: 2.66E+11 p/s and 3.30E+09 p/s and 1.57E+11 p/s and 4.71E+11 p/s and 1.41E+09 p/s and 2.08E+11 p/s and 5.85E+11 p/s and 1.74E+09 p/s and 1.80E+11 p/s
MV4-11-Red.Fluc; Day 45, individual ROI (one per animal), background-subtracted, listed as ABT-199
  Total Flux minus ROI 1 (background): -3.57E+08 p/s and -4.07E+08 p/s and -2.51E+08 p/s and -8.01E+08 p/s and 2.76E+08 p/s and 4.15E+11 p/s and -2.10E+07 p/s and 1.27E+08 p/s and 8.71E+11 p/s
MV4-11-Red.Fluc; Day 45, individual ROI (one per animal, ROI 2-10), raw value, listed as ABT-199
  Total Flux: 9.69E+08 p/s and 9.19E+08 p/s and 1.08E+09 p/s and 5.25E+08 p/s and 1.60E+09 p/s and 4.16E+11 p/s and 1.30E+09 p/s and 1.45E+09 p/s and 8.72E+11 p/s
MV4-11-Red.Fluc; Day 52, individual ROI (one per animal), background-subtracted, listed as ABT-199
  Total Flux minus ROI 1 (background): 4.43E+11 p/s and 2.98E+10 p/s
MV4-11-Red.Fluc; Day55, individual ROI (one per animal), background-subtracted
  Total Flux minus ROI 1 (background): 5.08E+11 p/s
MV4-11-Red.Fluc; Day55, individual ROI (one per animal, ROI 2-10), raw value
  Total Flux: 5.09E+11 p/s
MV4-11-Red.Fluc; day 6
  bioluminescence signal, group Average, 10 min post: 7.85E+07
  bioluminescence signal, individual mouse (ear tag), 10 min post: 6.21E+07 and 5.74E+07 and 4.57E+07 and 1.10E+08 and 9.71E+07 and 7.20E+07 and 8.40E+07 and 9.10E+07
MV4-11-Red.Fluc; day 10
  bioluminescence signal, group Average, 10 min post: 5.02E+08
  bioluminescence signal, individual mouse (ear tag), 10 min post: 3.02E+08 and 5.77E+08 and 2.27E+08 and 9.68E+08 and 7.24E+08 and 4.68E+08 and 3.50E+08 and 4.61E+08
MV4-11-Red.Fluc; day 13
  bioluminescence signal, group Average, 10 min post: 1.09E+09
MV4-11-Red.Fluc; day 17
  bioluminescence signal, group Average, 10 min post: 4.62E+09
  bioluminescence signal, individual mouse (ear tag), 10 min post: 3.54E+09 and 4.80E+09 and 3.65E+09 and 6.19E+09 and 6.79E+09 and 2.67E+09 and 4.40E+09 and 4.67E+09
MV4-11-Red.Fluc; day 20
  bioluminescence signal, group Average, 10 min post: 9.05E+09
  bioluminescence signal, individual mouse (ear tag), 10 min post: 8.51E+09 and 1.38E+10 and 5.28E+09 and 1.23E+10 and 6.88E+09 and 6.58E+09 and 8.42E+09 and 1.02E+10
MV4-11-Red.Fluc; day 24
  bioluminescence signal, group Average, 10 min post: 1.53E+10
  bioluminescence signal, individual mouse (ear tag), 10 min post: 9.16E+09 and 1.73E+10 and 6.56E+09 and 2.31E+10 and 2.87E+10 and 1.24E+10 and 1.46E+10 and 1.55E+10
MV4-11-Red.Fluc; day 27
  bioluminescence signal, group Average, 10 min post: 2.79E+10
  bioluminescence signal, individual mouse (ear tag), 10 min post: 2.48E+10 and 2.02E+10 and 1.49E+10 and 4.29E+10 and 4.73E+10 and 2.09E+10 and 3.23E+10 and 1.93E+10
MV4-11-Red.Fluc; day 31
  bioluminescence signal, group Average, 10 min post: 5.69E+10
MV4-11-Red.Fluc; day 34
  bioluminescence signal, group Average, 10 min post: 1.07E+11
MV4-11-Red.Fluc; day 38
  bioluminescence signal, group Average, 10 min post: 1.45E+11
MV4-11-Red.Fluc; day 41
  bioluminescence signal, group Average, 10 min post: 3.10E+11
  bioluminescence signal, individual mouse (ear tag), 10 min post: 2.65E+11 and 1.55E+11 and 4.70E+11 and 2.06E+11 and 5.84E+11
MV4-11-Red.Fluc; day 45
  bioluminescence signal, group Average, 10 min post: 6.43E+11
  bioluminescence signal, individual mouse (ear tag), 10 min post: 4.15E+11
MV4-11-Red.Fluc; day 48
  bioluminescence signal, group Average, 10 min post: 2.37E+11
  bioluminescence signal, individual mouse (ear tag), 10 min post: 4.43E+11
MV4-11-Red.Fluc; day 55
  bioluminescence signal, group Average, 10 min post: 8.71E+11
OCI-AML2 xenografts
  effect on OCI-AML2 xenograft growth: no meaningful effect
